In data set [1] the test system is rats with unilateral lesions in the substantia nigra. The note with it: at 100 to 500 times larger doses than the (+) enantiomer; cited from earlier work.
The test system of data set [2] is PC12 cells that express mutant G93A SOD1 as a YFP fusion protein. Briefly: high throughput cytotoxicity protection assay. How it is done: This idea was tested by examining the sensitivity of PC12 cells to SOD1 aggregates in the presence and absence of proteasome inhibitor MG132. PC12 cells expressing no SOD1, wild type SOD1, G85R SOD1 or G93A SOD1 were grown with or without MG132 (FIG. 1). […] The ability of protein aggregates to induce cell death was examined by treating G93A SOD1-expressing cells with MG132 for 24 h, removing the MG132 by washing and assaying cell viability after another 24 h.
PC12 cells expressing G93A SOD1 were treated with 100 nM MG132 with or without co-treatment with geldanamycin or radicicol.

The conditions of data set [3]: high doses; cited from earlier work.
The test system of data set [4] is healthy volunteers and chronic schizophrenic patients. The note with it: cited from earlier work.
Data set [5] concerns PC12 cells expressing G85R SOD1. Briefly: mutant SOD1 direct protein aggregation assay. In kind it is cell-based. How it is done:
4) Compounds could act directly on SOD1 in a manner that prevents mutant SOD1 aggregation. These possibilities were tested using an assay that directly measures protein aggregation. In addition, unlike the high throughput cytotoxicity protection assay, the protein aggregation assay is based on G85R SOD1; this broadens the scope of the screening strategy, and should eliminate compounds with highly specific activity (i.e., G93A SOD1 limited) against protein aggregation.
The identification of a positive control is a crucial step in assay development. Thus, PC12 cells expressing G85R or G93A mutant SOD1 were treated with MG132 to induce protein aggregation, and then co-treated with candidate chemical suppressors of protein aggregation.
To allow this assay to be used in a high-throughput manner, a Cellomics Arrayscan® high content microscopy system was used for screening and quantification. […] Because the most robust high content assays measure events on a per cell basis, it was necessary to select a fluorescent stain that marks whole cells to be used with a compatible stain that marks intracellular structures.

In data set [6] the test system is G93A SOD1 transgenic mice. The data set can be described thus: transgenic G93A SOD1 ALS mouse model (open field, survival, neuropathology). In kind it is in vivo. The note with it: for Average life span: untreated 125.1±3.8. An excerpt: Subjects. […] The development of transgenic mice expressing G93A human SOD1 as a mouse model for the human disease has been regarded as a major breakthrough for development of ALS therapeutics. G93A SOD1 transgenic mice develop progressive hind limb weakness, muscle wasting, and neuropathological sequelae similar to those observed in patients with both sporadic and familial ALS. […] In addition, motor performance deteriorates as the disease progresses. The G93A SOD1 mouse model has played a prominent role in studying disease progression and especially for testing potential therapeutic agents, the latter in part because these animals have a shortened life span of approximately 126 days. In the present study, G93A SOD1 mice and littermate controls are bred from existing colonies at the Bedford VA Medical Hospital. The male G93A SOD1 mice are mated with B6SJL females and the offspring are genotyped by PCR using tail DNA. The number of SOD1 transgenes are assessed by PCR to ensure that transgene copy number remains constant. Mice are housed in micro-isolator cages in complete barrier facilities, and all studies are performed in these facilities. A 12 hour light-dark cycle is maintained and animals are given free access to food and water. Control and transgenic mice of the same age (±2 days) and from the same ‘f generation will be selected from multiple litters to form experimental cohorts (n=20 per group). Standardized criteria for age and parentage are used for placing individual mice into experimental groups/cohorts. Wild type mice are used for initial toxicity, tolerability, and pharmacokinetic studies and ALS mice are used for one-month tolerability studies.
Tolerability, Dosing, and Pharmacokinetics. The tolerable dose range and LD50 for butaclamol was determined in wild type mice by increasing the dose b.i.d. one-fold each injection. The route of administration was via i.p. administration, which was previously reported to produce robust effects in behavioral pharmacology studies, and starting dose range was guided by these prior studies (Lippmann et al., Life Sciences 16, 213, (1975); Humber et al., Mol. Pharmacol. 11, 833, (1975); Voith and Herr, Psychopharmacologia 42, 11, (1975)). One goal was to select a range of doses for the efficacy study starting ten fold below the maximum tolerated dose. Initial pharmacokinetic (pK) studies were conducted by giving animals a single dose, sacrificing them after 30 min, 1 h, 2 h, 4 h, 6 h, and 12 h, and dissecting brains and spinal cords and determining drug concentration in the target tissue. Drug steady-state level was determined in animals that had been dosed for 1 week prior to sacrifice. The range of dosing levels of 0.01, 0.1, and 1 mg/kg once a day were administered throughout the lives of the G93A mice.
Behavioral pharmacology. Behavioral testing for the transgenic G93A SOD1 mice were performed during the light phase of the diurnal cycle since these mice are sufficiently active during that time. Measurements were made for 30 minutes after 10 minutes of acclimation to the box (Opto-Varimex Unit, Columbus Instruments, Columbus, Ohio, USA). Counts of horizontal and vertical motion activity were monitored and quantitative analysis of locomotor activity (resting and ambulatory times), were assessed. The open field box was cleaned before testing each mouse. Each 30 minutes of testing was analyzed as three periods of 10 minute intervals to study the influence of novelty and measured behavior. Mice were coded and investigators were blinded to the genotype and analysis. Testing started on week 4 and performed every other week until the mice could no longer participate.
Efficacy studies. Efficacy was measured using endpoints that clearly indicate neuroprotective function. These include amelioration of degenerative changes in the spinal cord, improved motor function, and prolonged survival. […]

In data set [7] the test system is G93A mice. The data set can be described thus: climbing assay for extrapyramidal effects. The note with it: 0.01, 0.1, 1 mg/kg. In kind it is in vivo, mouse. The source says: A climbing assay was used to test for extrapyramidal effects.
A short description of data set [8]: cellular toxicity. In kind it is cell-based. An excerpt:
Butaclamol is a diasteriomer and the two different isomeric forms can be physically separated.

Data set [9] relates to [3H] haloperidol binding sites. The conditions noted are these: cited from earlier work.
Data set [10] concerns [3H] dopamine binding sites. The note with it: cited from earlier work.

pEC50, pIC50: −log10 of the molar value. “Also recorded” adds a separate entry of the source.

What is called pIC50 is the IC50 on a negative log10 scale, so that one unit is a factor of ten. Read a high pIC50 as a low IC50.

On to (−) butaclamol, for which the behavioral activity result in data set [1] is recorded as “devoid of behavioral activity”. Further, the “activity in the protection assay” value in data set [2] is “only the eutomer (+butaclamol) showed activity”. In addition, the “effect on epinephrine-induced mortality” value in data set [3] is “devoid of any such activity”.

Turning to `CC(C)(C)[C@]1(O)CCN2C[C@H]3c4ccccc4CCc4cccc(c43)[C@@H]2C1` [Butaclamol], in data set [4] (healthy volunteers, single and repeated doses up to 32 mg/day), the “limiting effects in Phase I” value was “sedation and extrapyramidal effects”. Moreover, the “dose producing extrapyramidal effects in patients” value in data set [4] (human, in vivo) is reported as no less than 10 mg/day. In addition, the “neuroleptic activity in chronic schizophrenic patients” value in data set [4] (long-term, 50 mg/day) was “active neuroleptic agent”. The Aggregation result in data set [5] is “Inactive”. Also, the “activity in the aggregation assay” value in data set [5] was “inactive”. Also, in data set [6] (0.1 mg/kg, 120 days, WT 3.18±0.24×10^6, untreated 2.25±0.49×10^6, P<0.01), the “gross lumbar spinal cord (atrophy)” value is 2.97±0.31×10^6 μm^3. The “ventral horn of the lumbar spinal cord (atrophy)” value in [6] (0.1 mg/kg, 120 days, WT 7.29±0.41×10^5, untreated 5.28±0.63×10^5, P<0.05) is recorded as 6.55±0.37×10^5 μm. Further, in data set [6] (0.1 mg/kg, 120 days, WT 98.1±12.9, untreated 22.4±15.8, P<0.01), the “ventral horn neuronal count” value was 57.3±18.2. Also, the “reactive astrogliosis (GFAP expression, lumbar spinal cord)” value in data set [6] (butaclamol treatment) was “ameliorated; also recorded: markedly attenuates reactive astrogliosis”. For the same compound, the “open field motor activity” value in [6] (high dose 1 mg/kg, throughout treatment, vs wild type or untreated G93A) is “significantly reduced motor activity outcome measures”. The Average life span was found to be 123.7 ± 6.2 days in [6] (high dose (1 mg/kg once a day, i.p.)); 129.3 ± 4.1 days in data set [6] (low dose (0.01 mg/kg once a day, i.p.)); 141.0 ± 5.3 days in data set [6] (medium dose (0.1 mg/kg once a day, i.p.)). Further, the “open field behavior (distance traveled, resting time, ambulatory count, ambulatory time)” value in data set [6] (low dose 0.01 mg/kg, 6 week to 12-13 week) is on record as “no significant effect”. For the same compound, the open field behavior entry in data set [6] (medium dose 0.1 mg/kg, 6 weeks to 12-13 weeks, 0.1 mg/kg) was “not significantly different from wild type mice”. In addition, the “extended survival as compared with untreated G93A mice” value in [6] (medium dose (0.1 mg/kg)) is 12.7%. For the same compound, in [2], the “activity in the protection assay” value is “showed activity”. Also, the pEC50 in data set [2] (Rattus norvegicus, PC-12, read-out: Protection ED50) is roughly 6.08. For the same compound, the “Protection Efficacy Conc.” value in [2] (concentration at which the % viability is given) was found to be 15 µM. Also, the “Activity in Protection Assay” value in data set [2] (neuroleptic agent screening) is “Active”. Also, in data set [2] (rat), the “Protection Efficacy % Viability” value came out at 80%. In addition, the extrapyramidal effects entry in data set [7] is “No significant extrapyramidal effects”. Moreover, the pIC50 in data set [8] is greater than 4.60.

Regarding (+) butaclamol, the “times more potent than the (−) isomer” value was “one thousand” in [9] and “about one hundred” in data set [10]. For the same compound, the “activity in the protection assay” value in [2] was “showed activity”. Further, the “effect on epinephrine-induced mortality” value in data set [3] is recorded as “antagonized epinephrine-induced mortality”.
